According to publication PMC5908295 (Oncotarget, 2018):

Columns and labels:
[1] = tested on: MV-4-11 (FLT3-ITD+) cells; test: Western blot of FLT3/PIM downstream signaling; assay type: cell-based; conditions: MV-4-11, 4 hours
Protocol: (§1) Thereafter, we assessed the activities of FLT3-ITD – induced key pro-survival signaling pathways; STAT5, RAF/MEK/ERK and PI3K/AKT (Figure 3). […] Since the expression of a major anti-apoptotic BCL2 family member, MCL1, is regulated by translation, and PIM kinases regulate protein synthesis through 4EBP1, we also assessed the abundance of MCL1.
(§2) Cells were collected, washed twice with cold PBS, and lysed in RIPA buffer and kept on ice for 10 min. Tumor specimens from xenograft studies were homogenized in RIPA buffer using OMNI TH Tissue Homogenizer and kept on ice for 30 min. After incubation, cell and tumor lysates were centrifuged at 13,000×g at 4°C for 10 min and the supernatants were stored at −80°C until use. Protein concentration was measured using the Bradford method. For SDS-PAGE, 50 μg of protein in the Laemmli sample buffer was loaded onto 10% polyacrylamide gels and electrophoresed. Thereafter, proteins were transferred onto polyvinylidene fluoride (PVDF) membranes (Millipore). After blocking with 5% non-fat dry milk/TBS-T or 2% BSA/TBS-T, membranes were incubated with specific primary antibodies (listed in Supplementary Table 2) at 4 °C overnight. After extensive washing in PBS-T, membranes were incubated for 60 min with appropriate secondary peroxidase-conjugated IgG. The immunoreactive proteins were detected using an enhanced chemiluminescence (ECL) substrate (GE Healthcare) and visualized with Hyperfilm-ECL (GE Healthcare Biosciences).

MOLM-16 (FLT3-WT) cells = test: Western blot of FLT3/PIM downstream signaling; assay type: cell-based; conditions: MOLM-16, 4 hours
Protocol: as §1, §2

[2] = tested on: MV-4-11 tumors (FLT3-ITD+); test: MV-4-11 subcutaneous xenograft, single agent; assay type: in vivo, SCID/beige mice; conditions: PO
Source text: All animals were handled in strict accordance with good animal practice as defined by the relevant national and local animal welfare bodies. SCID and SCID/beige C.B-17 mice were provided by Harlan Laboratories or Charles River Laboratories, and were maintained in pathogen free conditions. For the xenograft experiments, age-matched (9-11 weeks old) females were used. 5×10^6 of MV-4-11 or MOLM-16 cells were suspended in a mixture (1:1, v:v) of PBS with Matrigel (BD Biosciences,) and injected subcutaneously (sc), in a total volume of 100 μL, above the groin on the right hind limb. For MOLM-13 and KG-1 cells, a mixture (3:1, v:v) of PBS and Matrigel HC (BD Bioscience,) was used to inject 5 × 10^6 of cell per mouse subcutaneously (sc), in a total volume of 100 μL. When tumors reached 100-130 mm^3, mice were randomized into uniform groups (6-9 mice per group) and subsequently administered the compound. […] At the end of the experiment, mice were anesthetized with isofluran and blood samples for total cell counts and biochemistry were obtained by retro-orbital bleeding. […] 5×10^6 cells suspended in a mixture (3:1, v:v) of PBS and Matrigel were injected as described above. When the tumor volume reached ~120 mm^3, mice were randomized into uniform groups (5 mice per group) and the compound then administered. […] Tumor volume was monitored every second day and calculated using the formula: TV = (a^2×b)/2, where “a” is the short axis in millimeters, and “b” is the long axis in millimeters. Body weight was assessed every day.

[3] = Metabolic stability, liver microsomes; assay type: in vitro ADME; conditions: Human, 37 °C, read-out: Liver microsomes t1/2 (converted)
SKM-1 = test: MTS viability assay, 72 h; conditions: Homo sapiens, SKM-1, 72 h
Protocol: On the same day, 50 μL of medium containing tested inhibitor was added to the wells. Each compound was tested at 8 concentrations, in triplicates. As a negative control, the medium containing 0.1% DMSO was used. […] Staurosporine was used at 10 μM as a positive control. One the day of drug addition, basal signal from untreated cells was measured from in triplicate to determine time zero (T0). […] GI50 and LC50 values were extrapolated from a variable (four-parameter) dose-response curve fitted in GraphPad Prism.

KG-1 (FLT3-WT) tumor = test: KG-1 subcutaneous xenograft; assay type: in vivo; conditions: KG-1, SCID mice; doses not given
Source text: All animals were handled in strict accordance with good animal practice as defined by the relevant national and local animal welfare bodies. SCID and SCID/beige C.B-17 mice were provided by Harlan Laboratories or Charles River Laboratories, and were maintained in pathogen free conditions. For the xenograft experiments, age-matched (9-11 weeks old) females were used. 5×10^6 of MV-4-11 or MOLM-16 cells were suspended in a mixture (1:1, v:v) of PBS with Matrigel (BD Biosciences,) and injected subcutaneously (sc), in a total volume of 100 μL, above the groin on the right hind limb. For MOLM-13 and KG-1 cells, a mixture (3:1, v:v) of PBS and Matrigel HC (BD Bioscience,) was used to inject 5 × 10^6 of cell per mouse subcutaneously (sc), in a total volume of 100 μL. When tumors reached 100-130 mm^3, mice were randomized into uniform groups (6-9 mice per group) and subsequently administered the compound. […] At the end of the experiment, mice were anesthetized with isofluran and blood samples for total cell counts and biochemistry were obtained by retro-orbital bleeding. […] 5×10^6 cells suspended in a mixture (3:1, v:v) of PBS and Matrigel were injected as described above. […] Tumor volume was monitored every second day and calculated using the formula: TV = (a^2×b)/2, where “a” is the short axis in millimeters, and “b” is the long axis in millimeters. Body weight was assessed every day.

CYP2C19 = target: T1, CYP2C19 (Homo sapiens, UniProt P33261); test: CYP isoforms inhibition; assay type: in vitro ADME; conditions: 5-dose, 3-fold dilution starting at 30 µM
T1 construct: Cambridge Bioscience Limited (ran the assay)
Protocol: (§3) or absence of enzyme cofactors. The assay was performed microsomes. (Supplementary Table 7).
(§4) with the respective reference samples (i.e. without measured at Cambridge Bioscience Limited (except
(§5) cofactors). After incubation, drug transformation by liver CYP1A2 inhibition which was measured in-house). […]
(§6) The control compound
(§7) The analysis of two standard compounds (i.e. positive a very weak potential for CYP inhibition with IC50
(§8) and negative controls) was included. […]

CYP2D6 = target: T2, CYP2D6 (Homo sapiens, UniProt P10635); test: CYP isoforms inhibition; assay type: in vitro ADME; conditions: 5-dose, 3-fold dilution starting at 30 µM
T2 construct: Cambridge Bioscience Limited (ran the assay)
Protocol: as §3, §4, §5, §6, §7, §8

CYP3A4 = target: T3, CYP3A4 (Homo sapiens, UniProt P08684); test: CYP isoforms inhibition; assay type: in vitro ADME; conditions: 5-dose, 3-fold dilution starting at 30 µM
T3 construct: Cambridge Bioscience Limited (ran the assay)
Protocol: as §3, §4, §5, §6, §7, §8

[4] = tested on: S6 phosphorylation (Ser235/236) in MV-4-11 cells; test: S6 phosphorylation, Western blot; assay type: cell-based; conditions: Homo sapiens, MV4-11; MV-4-11, 4 hours; read-out: IC50 S6 phosphorylation (Ser235/236), Western blotting
Protocol: as §2

[5] = tested on: S6 phosphorylation (Ser235/236) in KG-1 cells; test: S6 phosphorylation, Western blot; assay type: cell-based; conditions: Homo sapiens; KG-1, 4 hours; read-out: IC50 S6 phosphorylation (Ser235/236), Western blotting
Protocol: as §2

[6] = tested on: S6 phosphorylation (Ser235/236) in MOLM-16 cells; test: S6 phosphorylation, Western blot; assay type: cell-based; conditions: MOLM16; MOLM-16, 4 hours; read-out: IC50 S6 phosphorylation (Ser235/236), Western blotting
Protocol: as §2

[7] = tested on: S6 phosphorylation (Ser235/236) in MOLM-13 cells; test: S6 phosphorylation, Western blot; assay type: cell-based; conditions: Homo sapiens; MOLM-13, 4 hours; read-out: IC50 S6 phosphorylation (Ser235/236), Western blotting
Protocol: as §2

RS4;11 = test: MTS viability assay, 72 h; conditions: Homo sapiens, RS4-11, 72 h
Protocol: 15-25 ×10^3 of MV-4-11, MOLM-13, MOLM-14, MOLM-16, KG-1, Eol-1, SKM-1, PL-21, GDM-1, SKNO-1, RS4;11, Kasumi-3 and Kasumi-6 cells were seeded in 150 μL of culture medium onto individual wells in a 96 well plates, in triplicates. On the same day, 50 μL of medium containing tested inhibitor was added to the wells. Each compound was tested at 8 concentrations, in triplicates. As a negative control, the medium containing 0.1% DMSO was used. […] Staurosporine was used at 10 μM as a positive control. One the day of drug addition, basal signal from untreated cells was measured from in triplicate to determine time zero (T0). […] GI50 and LC50 values were extrapolated from a variable (four-parameter) dose-response curve fitted in GraphPad Prism.

MV-4-11 = test: Drug interactions (combination index), MTS; assay type: cell-based; conditions: MV-4-11, broad range of concentrations
Protocol: and AC220 in AML cell lines was assessed using an MTS assay. Cells viability was measured after 72 h incubation with three-fold serial dilutions of compounds, starting at 10 µM concentration. Obtained data were presented as percentage of viable cells compared with control (untreated) cells viability. Error bars indicate SD.
11 cells. Combination index (CI) are shown on the Y axis and compound concentrations are shown on X and Z axes. Values […] and below 0.7- a synergy between tested compounds. Values above 1 indicate an antagonistic effect.
(1 picture or pasted object on this page, not shown here)

T1 sequence (P33261 whole entry, canonical isoform): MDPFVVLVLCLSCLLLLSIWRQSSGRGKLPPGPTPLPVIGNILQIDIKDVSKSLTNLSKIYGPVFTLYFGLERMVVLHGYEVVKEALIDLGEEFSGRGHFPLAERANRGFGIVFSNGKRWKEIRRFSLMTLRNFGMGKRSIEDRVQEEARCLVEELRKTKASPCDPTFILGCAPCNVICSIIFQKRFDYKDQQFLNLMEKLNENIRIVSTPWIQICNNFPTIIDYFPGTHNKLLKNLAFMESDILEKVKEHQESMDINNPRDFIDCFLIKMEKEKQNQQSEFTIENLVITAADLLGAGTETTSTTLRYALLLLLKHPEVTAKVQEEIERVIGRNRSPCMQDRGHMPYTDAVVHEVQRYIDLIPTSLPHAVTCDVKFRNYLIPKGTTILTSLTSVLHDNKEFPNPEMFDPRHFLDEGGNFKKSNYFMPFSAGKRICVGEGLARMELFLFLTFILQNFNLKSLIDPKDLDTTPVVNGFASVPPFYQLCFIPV
T2 sequence (P10635 whole entry, canonical isoform): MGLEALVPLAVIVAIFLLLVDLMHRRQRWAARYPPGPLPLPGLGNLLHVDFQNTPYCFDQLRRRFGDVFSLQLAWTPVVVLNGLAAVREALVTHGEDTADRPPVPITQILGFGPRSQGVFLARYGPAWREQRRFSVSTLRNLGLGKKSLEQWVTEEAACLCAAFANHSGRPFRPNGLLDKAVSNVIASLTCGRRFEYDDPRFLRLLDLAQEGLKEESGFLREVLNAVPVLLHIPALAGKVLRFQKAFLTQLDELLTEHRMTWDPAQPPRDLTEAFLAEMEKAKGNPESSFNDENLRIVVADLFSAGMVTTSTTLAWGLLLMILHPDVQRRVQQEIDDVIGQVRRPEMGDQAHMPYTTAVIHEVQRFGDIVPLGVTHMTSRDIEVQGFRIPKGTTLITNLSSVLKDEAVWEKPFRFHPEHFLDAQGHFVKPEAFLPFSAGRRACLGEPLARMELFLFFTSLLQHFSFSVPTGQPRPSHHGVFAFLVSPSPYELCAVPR
T3 sequence (P08684 whole entry, canonical isoform): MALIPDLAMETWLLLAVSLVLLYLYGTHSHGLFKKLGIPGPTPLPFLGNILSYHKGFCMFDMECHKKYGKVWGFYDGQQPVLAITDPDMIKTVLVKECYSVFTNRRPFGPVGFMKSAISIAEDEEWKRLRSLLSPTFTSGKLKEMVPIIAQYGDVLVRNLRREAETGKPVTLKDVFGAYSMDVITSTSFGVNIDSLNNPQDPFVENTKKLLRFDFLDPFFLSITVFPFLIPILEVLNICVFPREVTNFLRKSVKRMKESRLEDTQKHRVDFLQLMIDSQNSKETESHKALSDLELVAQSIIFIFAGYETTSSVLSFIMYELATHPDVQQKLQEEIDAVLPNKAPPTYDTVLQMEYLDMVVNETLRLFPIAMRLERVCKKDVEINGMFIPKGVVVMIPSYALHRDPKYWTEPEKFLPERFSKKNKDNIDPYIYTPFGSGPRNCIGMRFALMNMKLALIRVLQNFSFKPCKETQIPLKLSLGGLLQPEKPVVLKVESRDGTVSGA

CC(C)n1c(C2CCNCC2)nc2c([N+](=O)[O-])c(Br)c(Br)cc21 [SEL24-B489, 5,6-dibromo-4-nitro-2-(piperidin-4-yl)-1-(propan-2-yl)-1H-1,3-benzodiazole]
MCL1 abundance [1]: markedly decreased
STAT5 signaling [1]: completely blocked
apoptosis indicated by PARP cleavage [1]: marked induction of apoptosis
S6 (S235/236) phosphorylation (MOLM-16 (FLT3-WT) cells): profound inhibition
tumor growth inhibition (TGI) ([2]; MV-4-11, 50 mg/kg daily): 67%
tumor growth inhibition (TGI) ([2]; MV-4-11, 75 mg/kg daily): 74%
tumor growth inhibition (TGI) ([2]; MV-4-11, 100 mg/kg daily): 82%
half-life at 1 µM [3]: 21.1 h
GI50 (SKM-1): 732 nM
CC50 (SKM-1; read-out: LC50): 7770 nM
TGI (KG-1 (FLT3-WT) tumor): ~ 50%
IC50 (CYP2C19): > 70000 nM
IC50 (CYP2D6): 10000 nM
IC50 (CYP3A4): > 100000 nM
IC50 [4]: 1 nM
IC50 [5]: 31 nM
IC50 [6]: 35 nM
IC50 [7]: 3 nM
GI50 (RS4;11): 190 nM
CC50 (RS4;11; read-out: LC50): 2160 nM
pharmacological interaction with AraC (MV-4-11): marked synergy
pharmacological interaction with vosaroxin (MV-4-11): marked synergy
